How the values were obtained:
Settings in all cases: 72 h
[1] = system: K-562; assay: cell viability (% survival relative to DMSO control, bortezomib = 0%); higher = less cytotoxic
In short: (§1)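 Fifteen myeloid leukaemia cell lines (10 AML, 5 CML) were seeded at a density titrated to the linear growth range into 384-well plates pre-printed with compounds at 1, 10, 100, 1000 or 10000 nM in duplicate. Plates were incubated for 72 h at 37 °C with 5% CO2. Viability was then read by CellTiter-Glo luminescence. Each value is percent survival averaged over the duplicates, with vehicle set to 100% and a 10 µM positive control to 0%.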

[2] = system: MOLM-13; assay: as above
In short: as §1

[3] = system: SHI-1; assay: as above
In short: as §1

[4] = system: KU-812; assay: as above
In short: as §1

[5] = system: Mono-Mac-6; assay: as above
In short: as §1

[6] = system: THP-1; assay: as above
In short: as §1

[7] = system: ML-2; assay: as above
In short: as §1

[8] = system: KCL-22; assay: as above
In short: as §1

[9] = system: HL-60; assay: as above
In short: as §1

[10] = system: BV-173; assay: as above
In short: as §1

[11] = system: MV4-11; assay: as above
In short: as §1

[12] = system: HEL; assay: as above
In short: as §1

[13] = system: KG-1; assay: as above
In short: as §1

[14] = system: LAMA-84; assay: as above
In short: as §1

[15] = system: NOMO-1; assay: as above
In short: as §1

[16] = system: K-562
In short: (§2)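 The IC50 was read from log-logistic dose–response fits. Fifteen myeloid leukaemia lines were exposed for 72 h at 37 °C with 5% CO2 to five tenfold doses from 1 to 10,000 nM in duplicate. ATP luminescence, normalised to vehicle and to a 10 µM positive control, was fitted with four parameters.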

[17] = system: MOLM-13
In short: as §2

[18] = system: SHI-1
In short: as §2

[19] = system: KU-812
In short: as §2

[20] = system: Mono-Mac-6
In short: as §2

[21] = system: THP-1
In short: as §2

[22] = system: ML-2
In short: as §2

[23] = system: KCL-22
In short: as §2

[24] = system: HL-60
In short: as §2

[25] = system: BV-173
In short: as §2

[26] = system: MV4-11
In short: as §2

[27] = system: HEL
In short: as §2

[28] = system: KG-1
In short: as §2

[29] = system: LAMA-84
In short: as §2

[30] = system: NOMO-1
In short: as §2

Cc1[nH]nc(C(F)(F)F)c1Cc1sc2c(c1C(=O)N1C[C@](C)(O)CO1)c(=O)n(C)c(=O)n2C(C)C [AZD3965]
cell viability [%]
Settings | 1 nM | 10 nM | 100 nM | 1000 nM | 10000 nM
[1] | 101 | 42 | 33.8 | 20 | 21.9
[2] | 113 | 120 | 120 | 105 | 93.5
[3] | 103 | 101 | 109 | 101 | 96.7
[4] | 91.7 | 120 | 112 | 89.8 | 98.9
[5] | 108 | 105 | 111 | 84.9 | 98.3
[6] | 107 | 104 | 113 | 99.5 | 102
[7] | 106 | 116 | 114 | 108 | 101
[8] | 89.7 | 112 | 125 | 102 | 108
[9] | 79.9 | 95.6 | 111 | 113 | 115
[10] | 91.4 | 103 | 4.97 | 0.26 | 0.551
[11] | 89 | 106 | 138 | 94.7 | 81.6
[12] | 84.2 | 108 | 116 | 111 | 109
[13] | 114 | 118 | 124 | 132 | 127
[14] | 89.5 | 120 | 113 | 95.1 | 102
[15] | 95.3 | 112 | 114 | 101 | 105

Settings | IC50 (cell viability) [nM]
[16] | 6.27
[17] | > 10000
[18] | > 10000
[19] | > 10000
[20] | > 10000
[21] | > 10000
[22] | > 10000
[23] | > 10000
[24] | > 10000
[25] | 36.2
[26] | > 10000
[27] | > 10000
[28] | > 10000
[29] | > 10000
[30] | > 10000

CN(Cc1cnc2nc(N)nc(N)c2n1)c1ccc(C(=O)N[C@@H](CCC(=O)O)C(=O)O)cc1 [Methotrexate]
cell viability [%]
Settings | 1 nM | 10 nM | 100 nM | 1000 nM | 10000 nM
[1] | 86.9 | 103 | 13.3 | 18.9 | 21.7
[2] | 88.1 | 33.1 | 0.91 | 0.853 | 0.962
[3] | 83.7 | 90.7 | 44.4 | 35.8 | 47.1
[4] | 99 | 63.1 | 38.9 | 33.3 | 42.5
[5] | 105 | 44.3 | 5.95 | 7.21 | 7.86
[6] | 99.8 | 96.6 | 13 | 10.3 | 11.8
[7] | 109 | 49.7 | 3.59 | 3.44 | 4.58
[8] | 97.1 | 59.2 | 40.4 | 21.1 | 20.7
[9] | 81.5 | 32 | 5.38 | 7.28 | 8.39
[10] | 107 | 98.3 | 2.71 | 1.64 | 2.28
[11] | 112 | 45.4 | 3.4 | 2.47 | 3.21
[12] | 102 | 18.6 | 27.9 | 6.63 | 7.79
[13] | 104 | 93.8 | 98.9 | 94.3 | 92.9
[14] | 98.8 | 34 | 22.7 | 19.4 | 20.8
[15] | 108 | 94.8 | 40.4 | 29.4 | 30.8

Settings | IC50 (cell viability) [nM]
[16] | 33
[17] | 7.57
[18] | 80.8
[19] | 15.7
[20] | 8.26
[21] | 31.9
[22] | 9.65
[23] | 12.6
[24] | 7.01
[25] | 32.3
[26] | 8.96
[27] | 3.7
[28] | > 10000
[29] | 4.72
[30] | 51.5

Reference: the supplement of paper PMC8671470
